In brackets after ≈: the same amount, converted by molar mass. Where a name gives a salt, the structure may show the parent alone. Read-outs that look alike come from different tables or passages of the source.
Columns and labels:
[1] = target: S. aureus 133 Translation; assay: S. aureus in vitro transcription-translation assay (firefly luciferase, S30 extract); type: biochemical; conditions: 50% inhibition of the translation of firefly luciferase
Description: In Vitro Transcription-Translation with S. aureus Extracts
Construction of an S. aureus luciferase Reporter Plasmid
In order to construct a reporter plasmid which can be used in an in vitro transcription-translation assay from S. aureus the plasmid pBESTluc (Promega Corporation, USA) is used. The E. coli tac promoter present in this plasmid in front of the firefly luciferase is replaced with the capA1 promoter with appropriate Shine-Dalgarno sequence from S. aureus. The primers CAPFor 5′-CGGCCAAGCTTACTC-[…] […]-3′ and CAPRev 5′-[…]-3′ are used for this. The primer CAPFor contains the capA1 promoter, the ribosome binding site and the 5′ region of the luciferase gene. After PCR using pBESTluc as template it is possible to isolate a PCR product which contains the firefly luciferase gene with the fused capA1 promoter. This is, after restriction with ClaI and HindIII, ligated into the vector pBESTluc which has likewise been digested with ClaI and HindIII. The resulting plasmid p1a can be replicated in E. coli and can be used as template in the S. aureus in vitro transcription-translation test.
Preparation of S30 Extracts from S. aureus
Six litres of BHI medium are inoculated with a 250 ml overnight culture of an S. aureus strain and allowed to grow at 37° C. until the OD600 nm is 2-4. The cells are harvested by centrifugation and washed in 500 ml of cold buffer A (10 mM Tris acetate, pH 8.0, 14 mM magnesium acetate, 1 mM DTT, 1 M KCl). After renewed centrifugation, the cells are washed in 250 ml of cold buffer A with 50 mM KCl, and the resulting pellets are frozen at −20° C. for 60 min. The pellets are thawed on ice in 30 to 60 min and taken up to a total volume of 99 ml in buffer B (10 mM Tris acetate, pH 8.0, 20 mM magnesium acetate, 1 mM DTT, 50 mM KCl). 1.5 ml portions of lysostaphin (0.8 mg/ml) in buffer B are introduced into 3 precooled centrifuge cups and mixed with 33 ml of the cell suspension each. The samples are incubated at 37° C., shaking occasionally, for 45 to 60 min, before 150 μl of a 0.5 M DTT solution are added. The lysed cells are centrifuged at 30 000×g and 4° C. for 30 min. The cell pellet is taken up in buffer B and then centrifuged again under the same conditions, and the collected supernatants are combined. The supernatants are centrifuged again under the same conditions, and 0.25 volumes of buffer C (670 mM Tris acetate, pH 8.0, 20 mM magnesium acetate, 7 mM Na3 phosphoenolpyruvate, 7 mM DTT, 5.5 mM ATP, 70 μM amino acids (complete from Promega), 75 μg of pyruvate kinase (Sigma, Germany))/ml are added to the upper ⅔ of the supernatant. The samples are incubated at 37° C. for 30 min. The supernatants are dialysed against 2 l of dialysis buffer (10 mM Tris acetate, pH 8.0, 14 mM magnesium acetate, 1 mM DTT, 60 mM potassium acetate) in a dialysis tube with a 3500 Da cut-off with one buffer change at 4° C. overnight. The dialysate is concentrated to a protein concentration of about 10 mg/ml by covering the dialysis tube with cold PEG 8000 powder (Sigma, Germany) at 4° C. The S30 extracts can be stored in aliquots at −70° C.
Determination of the IC50 in the S. aureus In Vitro Transcription-Translation Assay
The inhibition of protein biosynthesis of the compounds can be shown in an in vitro transcription-translation assay. The assay is based on the cell-free transcription and translation of firefly luciferase using the reporter plasmid p1a as template and cell-free S30 extracts obtained from S. aureus. The activity of the resulting luciferase can be detected by luminescence measurement.
The amount of S30 extract or plasmid p1a to be employed must be tested anew for each preparation in order to ensure an optimal concentration in the assay. 3 μl of the substance to be tested, dissolved in 5% DMSO, are provided in an MTP. Then […] of a suitably concentrated plasmid solution p1a are added. […]

[2] = test system: Enterococcus faecium L4001; assay: Minimum inhibitory concentration (MIC), E. faecium L4001; type: cell-based; conditions: Enterococcus faecium
Experimental: (§1) Determination of the Minimum Inhibitory Concentration (MIC)
(§2) The minimum inhibitory concentration (MIC) is the minimum concentration of an antibiotic with which the growth of a test microbe is inhibited over 18-24 h. The inhibitor concentration can in these cases be determined by standard microbiological methods (see, for example, The National Committee for Clinical Laboratory Standards. Methods for dilution antimicrobial susceptibility tests for bacteria that grow aerobically; approved standard-fifth edition. NCCLS document M7-A5 [ISBN 1-56238-394-9]. NCCLS, 940 West Valley Road, Suite 1400, Wayne, Pa. 19087-1898 USA, 2000). The MIC of the compounds of the invention is determined in the liquid dilution test on the 96-well microtitre plate scale. The bacterial microbes are cultivated in a minimal medium (18.5 mM Na2HPO4, 5.7 mM KH2PO4, 9.3 mM NH4Cl, 2.8 mM MgSO4, 17.1 mM NaCl, 0.033 μg/ml of thiamine hydrochloride, 1.2 μg/ml of nicotinic acid, 0.003 μg/ml of biotin, 1% glucose, 25 μg/ml of each proteinogenic amino acid with the exception of phenylalanine; [H.-P. Kroll; unpublished]) with addition of 0.4% BH broth (test medium). In the case of Enterococcus faecium L4001, heat-inactivated fetal calf serum (FCS; GibcoBRL, Germany) is added to the test medium in a final concentration of 10%. Overnight cultures of the test microbes are diluted to an OD578 of 0.001 (to 0.01 in the case of enterococci) in fresh test medium, and incubated 1:1 with dilutions of the test substances (1:2 dilution steps) in test medium (200 μl final volume). The cultures are incubated at 37° C. for 18-24 hours; enterococci in the presence of 5% CO2
(§3) The lowest substance concentration in each case at which no visible bacterial growth occurs any more is defined as the MIC.
(§4) Alternative Method for Determining the Minimum Inhibitory Concentration (MIC)
(§5) The minimum inhibitory concentration (MIC) is the minimum concentration of an antibiotic with which the growth of a test microbe is inhibited over 18-24 h. The inhibitor concentration can in these cases be determined by standard microbiological methods with modified medium in an agar dilution test (see, for example, The National Committee for Clinical Laboratory Standards. Methods for dilution antimicrobial susceptibility tests for bacteria that grow aerobically; approved standard-fifth edition. NCCLS document M7-A5 [ISBN 1-56238-394-9]. NCCLS, 940 West Valley Road, Suite 1400, Wayne, Pa. 19087-1898 USA, 2000). The bacterial microbes are cultivated on 1.5% agar plates which contain 20% defibrinated horse blood. The test microbes, which are incubated overnight on Columbia blood agar plates (Becton-Dickinson), are diluted in PBS, adjusted to a microbe count of about 5×10^5 microbes/ml and placed dropwise (1-3 μl) on test plates. The test substances comprise different dilutions of the test substances (1:2 dilution steps). The cultures are incubated at 37° C. in the presence of 5% CO2 for 18-24 hours.
(§6) The lowest substance concentration in each case at which no visible bacterial growth occurred any more is defined as the MIC and is reported in μg/ml.

S. aureus T17 = assay: Minimum inhibitory concentration (MIC), biphenomycin-resistant S. aureus T17; type: cell-based; conditions: Staphylococcus aureus; biphenomycin-resistant S. aureus T17; read-out: MIC S. aureus T17
Experimental: as §1, §2, §3, §4, §5, §6
The S. aureus strain T17 is isolated in vivo. CFW1 mice are infected intraperitoneally with 4×10^7 S. aureus 133 cells per mouse. 0.5 h after the infection, the animals are treated intravenously with 50 mg/kg biphenomycin B. The kidneys are removed from the surviving animals on day 3 after the infection. After homogenization of the organs, the homogenates are plated out as described for RN4220Bi^R on antibiotic-free and antibiotic-containing agar plates and incubated at 37° C. overnight. […] About 20 of these colonies are tested for the biphenomycin B MIC, and a colony with a MIC of >50 μM is selected for further cultivation, and the strain is referred to as T17.

S. aureus 133 [3] = assay: Minimum inhibitory concentration (MIC), S. aureus 133; type: cell-based
Experimental: as §1, §2, §3, §4, §5, §6

S. aureus 133 [4] = assay: Systemic infection with S. aureus 133 (mouse sepsis model); type: in vivo, mouse (female CFW1); conditions: i.p. infection, i.v. therapy 30 minutes after infection, survival recorded for 6 days
Experimental: Systemic Infection with S. aureus 133
The suitability of the compounds of the invention for the treatment of bacterial infections can be shown in various animal models. For this purpose, the animals are generally infected with a suitable virulent microbe and then treated with the compound to be tested, which is present in a formulation which is adapted to the particular therapy model.
For this purpose, S. aureus 133 cells are cultured overnight in BH broth (Oxoid, Germany). The overnight culture was diluted 1:100 in fresh BH broth and expanded for 3 hours. The bacteria which are in the logarithmic phase of growth are centrifuged and washed twice with buffered physiological saline solution. A cell suspension in saline solution with an extinction of 50 units is then adjusted in a photometer (Dr Lange LP 2W). After a dilution step (1:15), this suspension is mixed 1:1 with a 10% mucine suspension. 0.2 ml of this infection solution is administered i.p. per 20 g of mouse. This corresponds to a cell count of about 1-2×10^6 microbes/mouse. The i.v. therapy takes place 30 minutes after the infection. Female CFW1 mice are used for the infection experiment. The survival of the animals is recorded for 6 days. The animal model is adjusted so that untreated animals die within 24 h after the infection.

[5] = E. faecium L4001, test medium with 10% FCS, read-out: MIC E. faecium L4001
[6] = Staphylococcus aureus, 133; read-out: MIC S. aureus 133
[7] = L4001, read-out: MIC E. faecium L4001
[8] = Staphylococcus aureus, 133, read-out: MIC S. aureus 133

Structure (SMILES): NCCC[C@@H]1NC(=O)[C@@H](N)Cc2cc(ccc2O)-c2ccc(O)c(c2)C[C@@H](C(=O)N(CCN)CC2CCCCN2)NC1=O (stereo partly drawn) [Example 9]
- IC50 [1]: 330 nM
- MIC [2, 5]: 32 µg/mL (≈ 53.7 µM)
- MIC (S. aureus T17): 2 µg/mL (≈ 3.36 µM)
- MIC (S. aureus 133 [3]; [6]): 4 µg/mL (≈ 6.71 µM)

Structure (SMILES): NCCC[C@@H]1NC(=O)[C@@H](N)Cc2cc(ccc2O)-c2ccc(O)c(c2)C[C@@H](C(=O)N(CCN)CC(O)CN)NC1=O (stereo partly drawn) [Example 8]
- IC50 [1]: 250 nM
- MIC [2, 5]: 16 µg/mL (≈ 28 µM)
- MIC (S. aureus T17): 4 µg/mL (≈ 7 µM)
- MIC (S. aureus 133 [3]; [6]): 1 µg/mL (≈ 1.75 µM)

Structure (SMILES): NCCC[C@@H]1NC(=O)[C@@H](N)Cc2cc(ccc2O)-c2ccc(O)c(c2)C[C@@H](C(=O)N2CCC[C@H]2C(=O)N[C@@H](CCCN)C(=O)NCCN)NC1=O.O=C(O)C(F)(F)F.O=C(O)C(F)(F)F.O=C(O)C(F)(F)F.O=C(O)C(F)(F)F [Example 2, 1-{[(8S,11S,14S)-14-Amino-11-(3-aminopropyl)-5,17-dihydroxy-10,13-dioxo-9,12-diazatricyclo[14.3.1.1^2,6]henicosa-1(20),2(21),3,5,16,18-hexaen-8-yl]carbonyl}-L-prolyl-N-(2-aminoethyl)-L-ornithinamide tetra(hydrotrifluoroacetate)]
- ED100 (therapeutic effect) (S. aureus 133 [4]): 1.25 mg/kg

Structure (SMILES): NCCC[C@@H]1NC(=O)[C@@H](N)Cc2cc(ccc2O)-c2ccc(O)c(c2)C[C@@H](C(=O)N2CCC[C@H]2C(=O)N[C@@H](CCCN)C(=O)NCCN)NC1=O [Example 1, 1-{[(8S,11S,14S)-14-Amino-11-(3-aminopropyl)-5,17-dihydroxy-10,13-dioxo-9,12-diazatricyclo[14.3.1.1^2,6]henicosa-1(20),2(21),3,5,16,18-hexaen-8-yl]carbonyl}-L-prolyl-N-(2-aminoethyl)-L-ornithinamide tetrahydrochloride]
- IC50 [1]: 700 nM
- MIC [2, 7]: 2 µg/mL
- MIC (S. aureus T17): 4 µg/mL
- MIC (S. aureus 133 [3]; [8]): 1 µg/mL

Structure (SMILES): CNCCN(CCN)C(=O)[C@@H]1Cc2cc(ccc2O)-c2ccc(O)c(c2)C[C@H](N)C(=O)N[C@@H](CCCN)C(=O)N1 [Example 3, (8S,11S,14S)-14-Amino-N-(2-aminoethyl)-11-(3-aminopropyl)-5,17-dihydroxy-N-[2-(methylamino)ethyl]-10,13-dioxo-9,12-diazatricyclo[14.3.1.1^2,6]henicosa-1(20),2(21),3,5,16,18-hexaene-8-carboxamide tetrahydrochloride]
- IC50 [1]: 800 nM
- MIC [2, 7]: 8 µg/mL
- MIC (S. aureus T17): 4 µg/mL
- MIC (S. aureus 133 [3]; [8]): 2 µg/mL

Structure (SMILES): NCCC[C@@H]1NC(=O)[C@@H](N)Cc2cc(ccc2O)-c2ccc(O)c(c2)C[C@@H](C(=O)N(CCN)CCO)NC1=O [Example 6]
- IC50 [1]: 700 nM
- MIC [2, 5]: 4 µg/mL (≈ 7.37 µM)
- MIC (S. aureus T17): 4 µg/mL (≈ 7.37 µM)
- MIC (S. aureus 133 [3]; [6]): 2 µg/mL (≈ 3.69 µM)

Source: patent publication US20080300231A1, “Antibacterial amide macrocycles VI” (priority 2005, published 2008)
